Measurements published in patent publication US20250326756A1, “METHOD FOR PRODUCING 3,6-DISUBSTITUTED-IMIDAZO[1,2-B]PYRIDAZINE COMPOUNDS” (NUVATION BIO INC., priority 2022, published 2025).

Assay: Particle size distribution of monoadipate salt particles
Type: physicochemical
Settings: particles without milling or after wet milling
Procedure: The crude product was purified and milled as follows: After 4.02 Kg/Kg of anhydrous ethanol and 2.2 Kg/Kg of purified water were added into a reactor and stirred, the crude product obtained above was added to the mixture. The reaction mixture was heated to 65-70° C. and stirred until a clear solution was obtained. The recommended stirring time and rotation speed were 0.5-1 hour and 60-100 rpm, respectively. The reaction mixture was then cooled to 50-55° C. (target temperature: 53° C.) with a recommended cooling rate of 5-10° C./h. After 0.01 Kg/Kg of seed crystals of the compound of formula (5) adipate salt were added to the mixture at 50˜55° C., the mixture was stirred for 1˜3 hours (target: 2 hours) at this temperature. The reaction mixture was cooled down to 20-30° C. (target temperature: 25° C.) with recommended cooling rate of 5-10° C./h. After 8.4 Kg/Kg of purified water was slowly added to the mixture at 20-30° C. in 1-3 hours (target: 2 hours), the mixture was stirred for 1˜3 hours (target: 2 hours) at this temperature. The mixture was cooled to −5 to 5° C. (target temperature: 0° C.) at a cooling rate of 5 to 10° C./h, and stirred at this temperature for 4 to 8 hours (target: 6 hours). While maintaining the temperature at −5 to 5° C. (target temperature: 0° C.), the reaction mixture was passed through a wet mill (Blade no. 2, 6, and 6; rotation speed: 6,000-10,000 rpm, target: 8,000 rpm). Samples were taken every 20-30 minutes to measure the particle size of the solids after wet milling until D50 was no more than 45 μm (target: 35-45 μm). The reaction mixture was filtered through a filter with filter dryer sheath pre-cooled to T=−5˜5° C. The filter cake was washed with a mixture of 1.1 Kg/Kg of purified water and 0.39 Kg/Kg of anhydrous ethanol, which was pre-cooled to −5˜5° C. and maintain for at least 0.5 hour. The solid thus obtained was dried at 50˜60° C. in an oven under a controlled temperature of no more than 70° C. for 12 hours. Samples were taken every 4˜8 hours to track the residual ethanol and make sure the content of residual ethanol was no more than 0.4%. […]

3-(4-((R)-2-aminopropoxy)phenyl)-N—((R)-1-(3-fluorophenyl)ethyl)imidazo[1,2-b]pyridazin-6-amine adipate salt [compound of formula (5) adipate salt]
Particle size D10: 7.2 μm | Particle size D50: 44 μm | Particle size D90: 107 μm
